Reference: PubChem BioAssay AID248 (DTP/NCI, 2004)
Toxic doses and inconclusive results are not listed. No stated cut-off is given here; in the data, active means T/C of 150% or more; inactive means T/C below 125%.

Tested on: L1210 leukemia ip in BDF1 mice, survival T/C
Test: NCI In Vivo Anticancer Drug Screen. Data for tumor model L1210 Leukemia (intraperitoneal) in B6D2F1 (BDF1) mice
Conditions: endpoint: mean survival time, higher = longer survival
In short: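 Value reflects the ratio of survival in compound-treated mice to survival in vehicle-treated controls, with both groups carrying the same transplanted tumor.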

[1] = dose: 100.0 mg/kg/injection, schedule: Q01DX001 (ip), vehicle: saline
[2] = dose: 100.0 mg/kg/injection, schedule: Q01DX009 (ip), vehicle: saline
[3] = dose: 200.0 mg/kg/injection, schedule: Q01DX001 (ip), vehicle: saline
[4] = dose: 200.0 mg/kg/injection, schedule: Q01DX009 (ip), vehicle: saline
[5] = dose: 400.0 mg/kg/injection, schedule: Q01DX001 (ip), vehicle: saline
[6] = dose: 400.0 mg/kg/injection, schedule: Q01DX009 (ip), vehicle: saline
[7] = dose: 100.0 mg/kg/injection, schedule: Q01DX001 (ip), vehicle: saline with Tween-80
[8] = dose: 200.0 mg/kg/injection, schedule: Q01DX001 (ip), vehicle: saline with Tween-80
[9] = dose: 400.0 mg/kg/injection, schedule: Q01DX001 (ip), vehicle: saline with Tween-80
[10] = dose: 100.0 mg/kg/injection, schedule: Q01DX001 (ip), vehicle: carboxymethylcellulose (CMC)
[11] = dose: 200.0 mg/kg/injection, schedule: Q01DX001 (ip), vehicle: carboxymethylcellulose (CMC)
[12] = dose: 400.0 mg/kg/injection, schedule: Q01DX001 (ip), vehicle: carboxymethylcellulose (CMC)
[13] = dose: 100.0 mg/kg/injection, schedule: Q04DX003 (ip), vehicle: saline with Tween-80
[14] = dose: 200.0 mg/kg/injection, schedule: Q04DX003 (ip), vehicle: saline with Tween-80
[15] = dose: 100.0 mg/kg/injection, schedule: Q01DX009 (ip), vehicle: Klucel (hydroxypropylcellulose) (HPC)
[16] = dose: 200.0 mg/kg/injection, schedule: Q01DX009 (ip), vehicle: Klucel (hydroxypropylcellulose) (HPC)
[17] = dose: 400.0 mg/kg/injection, schedule: Q01DX009 (ip), vehicle: Klucel (hydroxypropylcellulose) (HPC)
[18] = dose: 400.0 mg/kg/injection, schedule: Q04DX003 (ip), vehicle: saline with Tween-80

Measured: T/C

COC(=O)c1csc(-c2csc(CCN)n2)n1
inactive: [1] 102 % of control | [2] 100 % of control | dose: 100.0 mg/kg/injection, schedule: Q04DX003 (ip), vehicle: saline 95 % of control | [3] 98 % of control | [4] 98 % of control | dose: 200.0 mg/kg/injection, schedule: Q04DX003 (ip), vehicle: saline 98 % of control | [5] 101 % of control | [6] 89 % of control | dose: 400.0 mg/kg/injection, schedule: Q04DX003 (ip), vehicle: saline 103 % of control

COc1ccc(C(C)(C)CC(=O)O)cc1OC
inactive: [7] 92 % of control | [8] 92 % of control | [9] 95 % of control

NCC(O)c1cccc(O)c1 (stereo not drawn)
inactive: dose: 50.0 mg/kg/injection, schedule: Q01DX001 (ip), vehicle: carboxymethylcellulose (CMC) 105 % of control | [10] 94 % of control | [11] 100 % of control | [12] 100 % of control

CCCC1N(C)CCCN1C
inactive: [13] 114 % of control | [14] 102 % of control

CC(=O)c1ccc(OC(=O)Oc2ccc(C(C)=O)cc2)cc1
inactive: [10] 93 % of control | [11] 101 % of control | [12] 93 % of control

Cc1nc2ccccc2c(=O)n1-c1ccccc1Cl
inactive: [7] 113 % of control | [8] 108 % of control | [9] 106 % of control

CC(c1ccccc1)C(C#N)c1ccccc1 (stereo not drawn)
inactive: [15] 97 % of control | dose: 100.0 mg/kg/injection, schedule: Q04DX003 (ip), vehicle: Klucel (hydroxypropylcellulose) (HPC) 97 % of control | [16] 98 % of control | dose: 200.0 mg/kg/injection, schedule: Q04DX003 (ip), vehicle: Klucel (hydroxypropylcellulose) (HPC) 92 % of control | [17] 88 % of control | dose: 400.0 mg/kg/injection, schedule: Q04DX003 (ip), vehicle: Klucel (hydroxypropylcellulose) (HPC) 89 % of control

CC12CCC3C(CCC4C(C)(C(=O)O)CCCC34C)(CC1=O)C2 (stereo not drawn)
inactive: [7] 92 % of control | [8] 95 % of control

CC(=O)c1ccc(O)c2ccccc12
inactive: dose: 100.0 mg/kg/injection, schedule: Q04DX002 (ip), vehicle: saline with Tween-80 92 % of control | dose: 200.0 mg/kg/injection, schedule: Q04DX002 (ip), vehicle: saline with Tween-80 95 % of control | dose: 400.0 mg/kg/injection, schedule: Q04DX002 (ip), vehicle: saline with Tween-80 100 % of control

COc1ccc(/C=C/C(=O)c2ccccc2)cc1Br
inactive: [13] 100 % of control | [14] 96 % of control | [18] 96 % of control

CC(O)C(C)(C)CO (stereo not drawn)
inactive: [2] 94 % of control | [4] 95 % of control | [6] 90 % of control

CCCCCCCCCCCCC(C)(OO)C(=O)OC (stereo not drawn)
inactive: dose: 15.0 mg/kg/injection, schedule: Q04DX002 (ip), vehicle: saline with Tween-80 100 % of control | dose: 30.0 mg/kg/injection, schedule: Q04DX002 (ip), vehicle: saline with Tween-80 91 % of control | dose: 160.0 mg/kg/injection, schedule: Q04DX002 (ip), vehicle: saline with Tween-80 95 % of control

O=C(C[n+]1ccccc1/C=N/O)c1ccccc1
inactive: dose: 12.5 mg/kg/injection, schedule: Q01DX009 (ip), vehicle: saline with Tween-80 101 % of control | dose: 25.0 mg/kg/injection, schedule: Q01DX009 (ip), vehicle: saline with Tween-80 99 % of control | dose: 50.0 mg/kg/injection, schedule: Q01DX009 (ip), vehicle: saline with Tween-80 101 % of control | dose: 75.0 mg/kg/injection, schedule: Q01DX001 (ip), vehicle: other 97 % of control

COc1ccc(N(N=Nc2ccccc2)C(C)=O)cc1
inactive: dose: 40.0 mg/kg/injection, schedule: Q01DX009 (ip), vehicle: Klucel (hydroxypropylcellulose) (HPC) 96 % of control | dose: 75.0 mg/kg/injection, schedule: Q01DX001 (ip), vehicle: Klucel (hydroxypropylcellulose) (HPC) 96 % of control | dose: 75.0 mg/kg/injection, schedule: Q01DX009 (ip), vehicle: Klucel (hydroxypropylcellulose) (HPC) 101 % of control | dose: 150.0 mg/kg/injection, schedule: Q01DX001 (ip), vehicle: Klucel (hydroxypropylcellulose) (HPC) 90 % of control | dose: 150.0 mg/kg/injection, schedule: Q01DX009 (ip), vehicle: Klucel (hydroxypropylcellulose) (HPC) 112 % of control | dose: 300.0 mg/kg/injection, schedule: Q01DX001 (ip), vehicle: Klucel (hydroxypropylcellulose) (HPC) 86 % of control

N#C/C(=C\c1cc(Br)cc(Br)c1O)c1ccc([N+](=O)[O-])cc1
inactive: [13] 97 % of control | [14] 87 % of control | [18] 102 % of control

CCC[n+]1nsc2ccccc21
inactive: [1] 101 % of control

O=P(O)(O)C(Cl)(Cl)Cl
inactive: dose: 50.0 mg/kg/injection, schedule: Q01DX009 (ip), vehicle: saline 100 % of control | [2] 96 % of control | dose: 100.0 mg/kg/injection, schedule: Q04DX002 (ip), vehicle: saline 92 % of control | [4] 96 % of control | dose: 200.0 mg/kg/injection, schedule: Q04DX002 (ip), vehicle: saline 99 % of control

CN(C)/N=N\c1nc[nH]c1C(=O)NC1CCCCC1
inactive: dose: 10.0 mg/kg/injection, schedule: Q01DX001 (ip), vehicle: saline with Tween-80 100 % of control | dose: 20.0 mg/kg/injection, schedule: Q01DX001 (ip), vehicle: saline with Tween-80 94 % of control | dose: 40.0 mg/kg/injection, schedule: Q01DX001 (ip), vehicle: saline with Tween-80 96 % of control | dose: 75.0 mg/kg/injection, schedule: Q01DX009 (ip), vehicle: saline with Tween-80 98 % of control | dose: 150.0 mg/kg/injection, schedule: Q01DX009 (ip), vehicle: saline with Tween-80 109 % of control | dose: 300.0 mg/kg/injection, schedule: Q01DX009 (ip), vehicle: saline with Tween-80 101 % of control

COc1ccc(C(=S)N2CCN(c3ccc(C)cc3)CC2)cc1
inactive: [1] 98 % of control | [3] 95 % of control | [5] 95 % of control

Nc1ncnc2c1ncn2C1OC(C2CC2)C(O)C1O (stereo not drawn)
inactive: dose: 25.0 mg/kg/injection, schedule: Q01DX005 (ip), vehicle: saline 111 % of control | dose: 50.0 mg/kg/injection, schedule: Q01DX005 (ip), vehicle: saline 104 % of control | dose: 100.0 mg/kg/injection, schedule: Q01DX005 (ip), vehicle: saline 98 % of control | dose: 200.0 mg/kg/injection, schedule: Q01DX005 (ip), vehicle: saline 94 % of control

O=C(Oc1cccc([N+](=O)[O-])c1)c1ccc([N+](=O)[O-])cc1O
inactive: [1] 95 % of control | [3] 95 % of control | [5] 97 % of control

C1=CC2C3CC(OCCOC4CC5CC4C4CC=CC54)C(C3)C2C1 (stereo not drawn)
inactive: dose: 100.0 mg/kg/injection, schedule: Q01DX009 (ip), vehicle: saline with Tween-80 97 % of control | [13] 98 % of control | dose: 200.0 mg/kg/injection, schedule: Q01DX009 (ip), vehicle: saline with Tween-80 93 % of control | [14] 100 % of control | dose: 400.0 mg/kg/injection, schedule: Q01DX009 (ip), vehicle: saline with Tween-80 104 % of control | [18] 95 % of control

CCOP(=S)(OCC)N1c2ccccc2Sc2ccccc21
inactive: [13] 92 % of control | [14] 91 % of control

COc1ccc(OC)c(NC(=O)CS)c1
inactive: [13] 97 % of control | [14] 91 % of control

CCC(C)c1cc([N+](=O)[O-])cc([N+](=O)[O-])c1SC(=O)N(C)C (stereo not drawn)
inactive: [15] 94 % of control | [16] 97 % of control | [17] 100 % of control

C1=CC2(CCCC1)OCCO2
inactive: [13] 100 % of control | [14] 97 % of control | [18] 108 % of control

Cc1cc2c(cc1C)C1(c3ccccc3)OC1(c1ccccc1)C2=O (stereo not drawn)
inactive: [7] 95 % of control | [8] 88 % of control | [9] 92 % of control
